Test results taken from PMC13108699, “Mass balance and metabolite profiling of ^14C-Zalunfiban in humans following single-dose subcutaneous administration” (Xenobiotica; the fate of foreign compounds in biological …, 2025).

What was measured:
platelet aggregation = test: In vitro inhibition of ADP-induced platelet aggregation in platelet-rich plasma; assay type: cell-based, human; details: Homo sapiens, Platelet, 20 min; PRP, 20 min at 22°C, ADP-initiated aggregation
Description: Ten mL of whole blood was collected from healthy human donors via venipuncture and treated with an anticoagulant (D-phenylalanyl-prolyl-arginyl chloromethyl ketone). From this, platelet-rich plasma (PRP) was prepared by centrifuging whole blood at room temperature at 650 × g for 4 min. PRP was removed and standardised to a uniform platelet concentration of 3.0 × 10^5/μL, using platelet poor plasma as a diluent, where necessary. […] Platelet aggregation was measured using an aggregometer (PAP-8E C/N 106075; Bio/Data Corp, Horsham PA). For M1 a range of concentrations was tested to produce a single fitted curve, and the Levenberg-Marquardt approach was used to calculate IC50 values.

[1] = Cumulative excretion of ^14C in urine and faeces (mass balance); assay type: in vivo, human
From the text: This was a Phase 1, single-centre, open-label, non-controlled, mass balance and metabolite profiling study of ^14C-radiolabeled zalunfiban in health male volunteers (NCT04284995). The planned participant enrolment size was 8, with 2 additional alternate participants available on the morning of dosing. Following a 28-day screening period, all eligible participants were admitted to the research unit the evening before dosing. After fasting overnight, participants completed a standard breakfast prior to dosing on study day 1. After dosing, subjects fasted for 4 h. Fluids were permitted ad libitum starting 1-hour after dosing. […]
Whole blood samples were analysed using accelerator mass spectrometry (AMS). […] Each sample was counted for at least 10 min or until the 2%2σ terminator was reached. […] The CO2 produced was trapped in a Carbosorb/Permafluor 2:1 v/v (Perkin Elmer, Waltham MA) to determine total carbon content and the ^14C:^12C ratio and then analysed by AMS.
A carbon content correction based upon pre-dose whole blood samples and urine samples was applied to all post dose samples. As the carbon content of homogenised faeces can be variable, all homogenised faeces samples were analysed by C,H,N using a Thermo Scientific FlashSmart elemental analyser (Waltham, MA). Urea standards were used to calibrate and normalise the C,H,N, and the carbon content of each sample was determined. […]

[2] = Safety assessments (adverse events, laboratory, vital signs, ECG); assay type: in vivo, human; details: for Tolerability: single SC 9.5 mg, 8 healthy males
Description: The study was reviewed, approved, and monitored by both an independent Institutional Review Board and a Data Safety Monitoring Board, and the protocol was performed under an Investigational New Drug Application. The safety of single-dose SC zalunfiban was evaluated by monitoring adverse events, clinical laboratory data, vital signs, 12-lead electrocardiogram, and physical examination. Vital signs (blood pressure, heart rate, body temperature, respiratory rate) were measured at screening, admission, pre-dose, post-dose at 1, 4, 8, hours, and in the morning on study days 2–11. Safety laboratory tests included serum chemistry, haematology, coagulation, and urinalysis, and were performed at screening, admission, and on study days 1, 4, and 11. On day 1, additional platelet counts were performed post-dose at 2, 6, and 12 h. […] Participants were continuously monitored for adverse events (AEs) and new use of medication(s).
During the study, AEs were collected from the time of informed consent to the last time the participant was seen. Any AE that occurred after the start of study drug administration was considered a treatment-emergent AE (TEAE). The investigator or designee assessed the severity of all AEs using the toxicity grading scale in National Cancer Institute Common Terminology Criteria for Adverse Events v5.0. These scales assign a grade of 1 through 5 to indicate the severity of AEs.

NCC(=O)Nc1cncc(-c2nn3c(=O)cc(N4CCNCC4)nc3s2)c1 [Zalunfiban, 2-amino-N-{5-[5-oxo-7-(piperazin-1-yl)-5H-[1,3,4]thia-diazolo[3,2-a]pyrimidin-2-yl]pyridin-3-yl}acetamide]
IC50 (platelet aggregation): 0.112 µM
Radioactivity recovered in urine and faeces ([1]; by 48 h, on average): more than 80%
Cumulative percentage of recovered ^14C (urine plus faeces) ([1]; by 240 h post-dose, range over participants, listed as 14C-zalunfiban): > 90%
TEAE headache ([2]; 1 grade 1 and one grade 2, of 8 dosed): 2 participants
Changes in clinical laboratory tests, vital signs, or ECGs ([2]; 8 dosed): no observed clinically significant changes
Serious TEAEs ([2]; 8 dosed): no serious TEAEs
TEAEs leading to study discontinuation ([2]; 8 dosed): no TEAEs leading to study discontinuation
TEAE confusion ([2]; grade 1, of 8 dosed): 1 participant
TEAE injection site bruising ([2]; grade 1, of 8 dosed): 1 participant
TEAE injection site pain ([2]; grade 1, of 8 dosed): 1 participant
Participants with Grade 1 AEs ([2]; of 8 dosed): 4 participants
Participants with a Grade 2 AE ([2]; of 8 dosed): 1 participant
Tolerability [2]: well-tolerated
Tolerability ([2]; listed as 14C-zalunfiban): safe and well-tolerated
